Structures can show the parent of a compound that is named as a salt.
Test system: hDMFa myofibroblast cells

O=C(O)c1cc(-c2ccccc2)nc2ccccc12 [Cmpd 265, Cinchophen]
Compound Myofibroblast Cytotoxicity Activity: ++

O=C(O)C=Cc1ccccc1 [Cmpd 266, Cinnamic acid]
Compound Myofibroblast Cytotoxicity Activity: ++

O=C(O)c1cn(C2CC2)c2cc(N3CCNCC3)c(F)cc2c1=O [Cmpd 268, Ciprofloxacin (hydrochloride)]
Compound Myofibroblast Cytotoxicity Activity: ++

C[N+](C)(C)CCOP(=O)(O)OP(=O)([O-])OC[C@H]1O[C@@H](n2ccc(N)nc2=O)[C@H](O)[C@@H]1O [Cmpd 271, Citicoline (sodium salt)]
Compound Myofibroblast Cytotoxicity Activity: +++

O=C(O)CC(O)(CC(=O)O)C(=O)O [Cmpd 273, Citric acid]
Compound Myofibroblast Cytotoxicity Activity: ++++

CC[C@H]1OC(=O)[C@H](C)[C@@H](O[C@H]2C[C@@](C)(OC)[C@@H](O)[C@H](C)O2)[C@H](C)[C@@H](O[C@@H]2O[C@H](C)C[C@H](N(C)C)[C@H]2O)[C@](C)(OC)C[C@@H](C)C(=O)[C@H](C)[C@@H](O)[C@]1(C)O [Cmpd 274, Clarithromycin]
Compound Myofibroblast Cytotoxicity Activity: +++

Clc1ccc(Cn2c(CN3CCCC3)nc3ccccc32)cc1 [Cmpd 277, Clemizole hydrochloride]
Compound Myofibroblast Cytotoxicity Activity: ++

CC(C)(C)NCC(O)c1cc(Cl)c(N)c(Cl)c1 (centres unmarked) [Cmpd 278, Clenbuterol (hydrochloride)]
Compound Myofibroblast Cytotoxicity Activity: ++

CCCC(=O)OCOC(=O)C1=C(C)NC(C)=C(C(=O)OC)C1c1cccc(Cl)c1Cl (centres unmarked) [Cmpd 279, Clevidipine Butyrate]
Compound Myofibroblast Cytotoxicity Activity: ++

Oc1c(I)cc(Cl)c2cccnc12 [Cmpd 281, Clioquinol]
Compound Myofibroblast Cytotoxicity Activity: ++

O=P(O)(O)C(Cl)(Cl)P(=O)(O)O [Cmpd 282, Clodronate (sodium salt hydrate)]
Compound Myofibroblast Cytotoxicity Activity: +++

CC(C)/N=c1\cc2n(-c3ccc(Cl)cc3)c3ccccc3nc-2cc1Nc1ccc(Cl)cc1 [Cmpd 283, Clofazimine]
Compound Myofibroblast Cytotoxicity Activity: ++

CCN(CC)CCOc1ccc(C(=C(Cl)c2ccccc2)c2ccccc2)cc1 [Cmpd 284, Clomiphene citrate]
Compound Myofibroblast Cytotoxicity Activity: +++

CN(C)CCCN1c2ccccc2CCc2ccc(Cl)cc21 [Cmpd 285, Clomipramine HCl]
Compound Myofibroblast Cytotoxicity Activity: ++

Cc1cc(C(C#N)c2ccc(Cl)cc2)c(Cl)cc1NC(=O)c1cc(I)cc(I)c1[O-].[Na+] (centres unmarked) [Cmpd 288, Closantel Sodium]
Compound Myofibroblast Cytotoxicity Activity: +++

Clc1ccccc1C(c1ccccc1)(c1ccccc1)n1ccnc1 [Cmpd 289, Clotrimazole]
Compound Myofibroblast Cytotoxicity Activity: +++

O=C(c1ccc(F)c(F)c1Nc1ccc(I)cc1F)N1CC(O)([C@@H]2CCCCN2)C1 [Cmpd 290, Cobimetinib]
Compound Myofibroblast Cytotoxicity Activity: ++++

C=C1C(=O)O[C@@H]2/C=C(\C)CC/C=C(\C)CC[C@@H]12 [Cmpd 292, Costunolide]
Compound Myofibroblast Cytotoxicity Activity: +++

CN(CC(=O)O)C(=N)N.O [Cmpd 295, Creatine monohydrate]
Compound Myofibroblast Cytotoxicity Activity: ++

CC1(COc2ccc3c(c2)ncn3-c2ccc3cccc(N4CCC(N)CC4)c3n2)COC1 [Cmpd 296, Crenolanib (CP-868596)]
Compound Myofibroblast Cytotoxicity Activity: +++++

CC=CC(=O)N(CC)c1ccccc1C [Cmpd 298, Crotamiton]
Compound Myofibroblast Cytotoxicity Activity: ++

CN(C)c1ccc(C(=C2C=CC(=[N+](C)C)C=C2)c2ccc(N(C)C)cc2)cc1 [Cmpd 299, Crystal Violet]
Compound Myofibroblast Cytotoxicity Activity: +++

CC1CC(OC(=O)C(O)c2ccccc2)CC(C)(C)C1 (centres unmarked) [Cmpd 301, Cyclandelate]
Compound Myofibroblast Cytotoxicity Activity: +++

Nc1cc[nH]c(=O)n1 [Cmpd 304, Cytosine]
Compound Myofibroblast Cytotoxicity Activity: ++

O=C(CO)[C@@H](O)[C@H](O)[C@H](O)CO [Cmpd 305, D-(−)-Fructose]
Compound Myofibroblast Cytotoxicity Activity: ++

OC[C@H]1O[C@H](OC[C@H]2O[C@H](O[C@]3(CO)O[C@H](CO)[C@@H](O)[C@@H]3O)[C@H](O)[C@@H](O)[C@@H]2O)[C@H](O)[C@@H](O)[C@H]1O [Cmpd 308, D-(+)-Raffinose (hydrate)]
Compound Myofibroblast Cytotoxicity Activity: ++

CC(C)(C)c1nc(-c2cccc(NS(=O)(=O)c3c(F)cccc3F)c2F)c(-c2ccnc(N)n2)s1.CS(=O)(=O)O [Cmpd 311, Dabrafenib Mesylate (GSK-2118436)]
Compound Myofibroblast Cytotoxicity Activity: ++

COc1cc2ncnc(Nc3ccc(F)c(Cl)c3)c2cc1NC(=O)/C=C/CN1CCCCC1 [Cmpd 313, Dacomitinib (PF299804, PF299)]
Compound Myofibroblast Cytotoxicity Activity: +++

O=C1CN(/N=C/c2ccc(-c3ccc([N+](=O)[O-])cc3)o2)C(O)=N1 [Cmpd 320, Dantrolene, sodium salt]
Compound Myofibroblast Cytotoxicity Activity: ++++

CCOc1ccc(Cc2cc([C@@H]3O[C@H](CO)[C@@H](O)[C@H](O)[C@H]3O)ccc2Cl)cc1.C[C@H](O)CO.O [Cmpd 321, Dapagliflozin ((2S)-1,2-propanediol,hydrate)]
Compound Myofibroblast Cytotoxicity Activity: ++

CN(C)[C@@H](CCOc1cccc2ccccc12)c1ccccc1 [Cmpd 322, Dapoxetine HCl]
Compound Myofibroblast Cytotoxicity Activity: ++

Cc1nc(Nc2ncc(C(=O)Nc3c(C)cccc3Cl)s2)cc(N2CCN(CCO)CC2)n1 [Cmpd 326, Dasatinib (BMS-354825)]
Compound Myofibroblast Cytotoxicity Activity: +++

Cc1nc(Nc2ncc(C(=O)Nc3c(C)cccc3Cl)s2)cc(N2CCN(CCO)CC2)n1 [Cmpd 327, Dasatinib hydrochloride]
Compound Myofibroblast Cytotoxicity Activity: +++

Cc1nc(Nc2ncc(C(=O)Nc3c(C)cccc3Cl)s2)cc(N2CCN(CCO)CC2)n1.O [Cmpd 328, Dasatinib Monohydrate]
Compound Myofibroblast Cytotoxicity Activity: +++

COc1cccc2c1C(=O)c1c(O)c3c(c(O)c1C2=O)C[C@@](O)(C(C)=O)C[C@@H]3O[C@H]1C[C@H](N)[C@H](O)[C@H](C)O1 [Cmpd 329, Daunorubicin HCl]
Compound Myofibroblast Cytotoxicity Activity: +++

CCCCCCCCCC(=O)O [Cmpd 331, Decanoic acid]
Compound Myofibroblast Cytotoxicity Activity: +

C=C1CC[C@@H]2[C@](C)(CO)[C@H](O)CC[C@@]2(C)[C@@H]1/C=C/C1=CCOC1=O [Cmpd 334, Dehydroandrographolide]
Compound Myofibroblast Cytotoxicity Activity: ++

C=C1CC[C@H]2C(=C)CC[C@H]3C(=C)C(=O)O[C@@H]3[C@@H]12 [Cmpd 336, Dehydrocostus Lactone]
Compound Myofibroblast Cytotoxicity Activity: +++++

O=C1O[C@H](CO)[C@@H](O)[C@H](O)[C@H]1O [Cmpd 338, delta-Gluconolactone]
Compound Myofibroblast Cytotoxicity Activity: ++

C[C@H](CCC(=O)O)[C@H]1CC[C@H]2[C@@H]3CC[C@@H]4C[C@H](O)CC[C@]4(C)[C@H]3C[C@H](O)[C@]12C [Cmpd 339, Deoxycholic acid sodium salt]
Compound Myofibroblast Cytotoxicity Activity: +++++

Cc1cc(N)c2ccccc2[n+]1CCCCCCCCCC[n+]1c(C)cc(N)c2ccccc21 [Cmpd 340, Dequalinium Chloride]
Compound Myofibroblast Cytotoxicity Activity: ++

CCCCCCCCCCCCC/C=C/[C@@H](O)[C@@H](N)CO [Cmpd 341, D-erythro-Sphingosine (synthetic)]
Compound Myofibroblast Cytotoxicity Activity: ++

CNCCCN1c2ccccc2CCc2ccccc21.Cl [Cmpd 342, Desipramine hydrochloride]
Compound Myofibroblast Cytotoxicity Activity: ++++

C#C[C@]1(O)CC[C@H]2[C@@H]3CCC4=CCCC[C@@H]4[C@H]3C(=C)C[C@@]21CC [Cmpd 344, Desogestrel]
Compound Myofibroblast Cytotoxicity Activity: +++

Source: patent US20260102359A1, “COMBINATION TREATMENT OF DERMAL AND TRANSDERMAL FIBROTIC DISEASES, DISORDERS AND ASSOCIATED PAIN AND INFLAMMATION” (ERESINA, LLC, priority 2022, published 2026)
